From patent US8362072B2, “BRCA1-based breast or ovarian cancer treatment agents and methods of use” (University of Kansas, priority 2007, dated 2013) come the findings set out here.

This test relates to human BRCA1 promoter. Nature of the test: BRCA1-luciferase reporter assay (Steady-Glo) in stably transfected MCF7 cells. The test is classed as cell-based. As to conditions: for EC50 / EC90: MCF7-BRCA1-luciferase cells, dilution series; for BRCA1-luciferase activity (in words): MCF7 pGL4.14-hBRCA1.3 cells. On the procedure:
Hygromycin selected MCF7 cells were seeded in 384-well tissue culture plates. The first two columns of each plate were empty so as to include established positive and negative controls. Each of the remaining 352 wells contained a compound to be screened. MCF7 cells were incubated with the compounds for 48 hours. Luciferase activity was measured using the Steady Glo Luciferase Assay System (Promega). Briefly, 5×10^6 MCF7 cells were transfected with […] of purified pGL4.14 containing the human BRCA1 promoter (pGL4.14-hBRCA) with Effectene as per manufacturers protocol (Qiagen). Stable transfectants were selected with […] Hygromicin B. 1×10^5 or 2×10^5 stable transfectants were tested for luciferase activity with the Steady-Glo Luciferase Assay System (Promega).
Hygromycin selected MCF-7 cells (e.g., MCF7 clone pGL4.14-hBRCA1.3) stably transfected with the human BRCA1-luciferase reporter construct (e.g., pGL4.14-hBRCA1.3) were seeded in 384-well white tissue culture plates (Becton Dickenson, San Diego, Calif.) at 1×10^4 cells/well. These cells were then stimulated with indicated concentrations of genistein (Sigma-Aldrich, St. Louis, Mo.) for 0, 6, 9, 24 and 48 hours. Luciferase activity was measured using the Steady Glo Luciferase Assay System (Promega). The data shown in FIG. 3A is representative of 3 individual experiments.
Two different chemical libraries were screened for the ability to enhance BRCA1 gene expression. To examine the effects of each compound on BRCA1 expression, the human BRCA1 promoter was cloned and inserted upstream of the firefly luciferase gene in the plasmid pGL4.14 (BRCA1-Luc) (Promega), as described above. The ER positive human breast cancer cell line, MCF7, was transfected and stable transfectants were selected with hygromycin.
Briefly, compounds were plated in a 384 well plate in a total volume of 20 μl. A ten point dilution series was used at concentrations—100 µM, 10 μM, 1 μM, 100 nM, 10 nM, 1 nM, 0.1 nM, 0.01 nM, 0.0001 nM, 0 (DMSO vehicle only). A second dilution series of 100 μM, 32.5 μM, […], 3.6 μM, 1.2 μM, 400 nM, 132.2 nM, 45 nM, 14.8 nM, 5 nM, and 1.65 nM was also used. MCF7-BRCA1-luciferase cells were added to the compounds at a concentration of 1×10^4 cells/well in a volume of 25 μl. The 384 well plates, containing the compounds+cells, were then incubated at 37° C. for 48 hours. After 48 hours, luciferase activity was measured with the Steady-Glo® Luciferase Assay System (Promega, Madison, Wis.).
(In a reporter assay the amount or activity of a reporter protein is the signal.)

In the case of `Fc1ccc(-c2nnc(-c3ccc(F)cc3)o2)cc1` [Cmpd 6], the EC50 (commonly the concentration needed to bring the measured effect to its halfway point) (Homo sapiens, MCF7, 48 h) turned out to be 1.64 µM. In addition, the EC90 (commonly the point of the concentration-response curve where the effect stands at 90%) (Homo sapiens, 48 hours) came out at 24.2 µM.
As to `Clc1cccc(CNc2ccc3[nH]c(-c4ccco4)nc3c2)c1` [JN1-82], the EC50 (Homo sapiens, MCF7, 48 h) was 2.05 µM. The compound further had a concentration for an effect of 90% (EC90) (Homo sapiens, 48 hours) of 4.94 µM. In addition, the “BRCA1-luciferase activity (in words)” value (48 hours) was “rank with the other top compounds and genistein”.
Turning to `O=c1c(-c2ccc(O)cc2)coc2cc(O)ccc12` [Daidzein, reference compound], for the setting “48 hours”, the “BRCA1-luciferase activity (in words)” value is given as “dose-dependent increase in BRCA1-luciferase activity”.
`COc1ccccc1OCC(=O)O/N=C(\N)c1ccccn1` [Cmpd 13] had an EC50 (Homo sapiens, MCF7, 48 h) of 69.6 µM. For the same compound, for the setting “Homo sapiens, 48 hours”, the EC90 was 377 µM.
Consider `COc1ccc(/C=N/c2ccc3[nH]c(-c4ccccc4)nc3c2)cc1OC` [Cmpd 23], for which a half-maximal response (Homo sapiens, MCF7, 48 h) (EC50) required 10.7 µM. Where the note is “Homo sapiens, 48 hours”, this compound yielded an EC90 of roughly 11.8 µM.
`Cc1[nH]n(-c2ccc([N+](=O)[O-])cc2)c(=O)c1/C=N/C1CCCC1` [Cmpd 18] showed an EC50 (Homo sapiens, MCF7, 48 h) of 11.2 µM. Where the note is “Homo sapiens, 48 hours”, this compound showed an EC90 of 17.2 µM.
`c1ccc(CNc2ccc3[nH]c(-c4ccco4)nc3c2)cc1` [JN1-68] displayed an EC50 (Homo sapiens, MCF7, 48 h) of 3.53 µM. In addition, the EC90 (Homo sapiens, 48 hours) is 8.84 µM. The “BRCA1-luciferase activity (in words)” value (48 hours) was “rank with the other top compounds and genistein”.
Where the note is “Homo sapiens, MCF7, 48 h”, `COc1ccc2c(c1OC)C(=O)N(c1ccc(C)cc1)C2` [Cmpd 32] displayed an EC50 of 9.43 µM. Where the note is “Homo sapiens, 48 hours”, this compound came in with an EC90 of 46.8 µM.
On the same counts, the results for `Fc1cccc(/C=N/c2ccc3[nH]c(-c4ccco4)nc3c2)c1` [JN1-78] are 17.4 µM and 49.4 µM.
For the compound `N/C(=N\OC(=O)Cc1cccs1)c1ccc(Cl)cc1` [Cmpd 8], the EC50 (Homo sapiens, MCF7, 48 h) turned out to be 2150 µM.
`Fc1ccc(Nc2nc(-c3ccccc3)cs2)cc1` [Cmpd 5] displayed an EC50 (Homo sapiens, MCF7, 48 h) of 11.6 µM. For the setting “Homo sapiens, 48 hours”, this compound came in with an EC90 of roughly 13.8 µM.
Take `Cc1cc(C(=O)Nc2ccc(N3CCOCC3)cc2)ccc1[N+](=O)[O-]` [Cmpd 3]: under “Homo sapiens, MCF7, 48 h”, the response was half-maximal at 8.73 µM (EC50). This compound also displayed an EC90 (Homo sapiens, 48 hours) of 47.3 µM. Further, the “BRCA1-luciferase activity (in words)” value (48 hours) is on record as “comparatively superior”.
Consider `Cc1ccc(C(=O)Nc2ccc3c(c2)oc2ccccc23)o1` [Cmpd 17], for which a half-maximal response (Homo sapiens, MCF7, 48 h) (EC50) required 0.948 µM. The EC90 (Homo sapiens, 48 hours) is 2.85 µM.
The compound `CC(C)c1ccc(OCC(=O)O/N=C(\N)c2ccncc2)c(Br)c1` [Cmpd 14] yielded an EC50 (Homo sapiens, MCF7, 48 h) of 106 µM. Where the note is “Homo sapiens, 48 hours”, this compound showed an EC90 of 998 µM. Moreover, the “BRCA1-luciferase activity (in words)” value (48 hours) is given as “comparatively superior to Compound 13”.
For `COc1ccc(/C(O)=C\C=N\c2ccccc2OC)cc1` [Cmpd 22], the EC50 (Homo sapiens, MCF7, 48 h) came out at 11 µM. Also, the EC90 (Homo sapiens, 48 hours) came out at 20.7 µM.
`Cc1cccc(-c2noc(-c3cccs3)n2)c1` [Cmpd 10]: the EC50 (Homo sapiens, MCF7, 48 h) was 0.218 µM. For the same compound, the EC90 (Homo sapiens, 48 hours) came to 2.56 µM.
Take `Fc1cccc(CNc2ccc3[nH]c(-c4ccco4)nc3c2)c1` [JN1-76]: the midpoint of the response (Homo sapiens, MCF7, 48 h), the EC50, lay at 2.42 µM. The same compound returned an EC90 (Homo sapiens, 48 hours) of 5.94 µM. The “BRCA1-luciferase activity (in words)” value (48 hours) is “rank with the other top compounds and genistein”.
For the compound `O=C(CSc1nc(=O)cc(O)[nH]1)c1ccccc1` [Cmpd 7], the midpoint of the response (Homo sapiens, MCF7, 48 h), the EC50, lay at 2060 µM. The EC90 (Homo sapiens, 48 hours) is roughly 63700 µM.
As to `O=C(Nc1ccc(Br)cn1)c1ccc(Oc2ccccc2)cc1` [Cmpd 28], where the note is “Homo sapiens, MCF7, 48 h”, the EC50 stood at 6.96 µM. That is a single-digit micromolar value.
Regarding `O/N=C(\CSc1nc2ccccc2[nH]1)c1ccccc1` [Cmpd 11], the EC50 (Homo sapiens, MCF7, 48 h) came out at 6.77 µM. In addition, the EC90 (Homo sapiens, 48 hours) is 80.5 µM. In addition, the “BRCA1-luciferase activity (in words)” value (48 hours) is “comparatively superior to Compound 13”.
The matching figures for `Cn1nnc(-c2ccc(OCc3ccccc3F)cc2)n1` [Cmpd 12]: 1.67 µM, 15.8 µM and “comparatively superior to Compound 13”.
Consider `CC(=O)c1ccc(/N=C/c2ccc(OCc3ccc(F)cc3)cc2)cc1` [Cmpd 31], for which the midpoint of the response (Homo sapiens, MCF7, 48 h), the EC50, lay at 4.88 µM. Besides, the 90% effect level (Homo sapiens, 48 hours) (EC90) was put at 71.5 µM.
The matching figures for `Clc1cccc(/C=N/c2ccc3[nH]c(-c4ccco4)nc3c2)c1` [JN1-77]: 34.9 µM and 196 µM.
Take `COc1ccc(-c2nc3cc(C)ccc3o2)cc1N` [Cmpd 4]: it took 0.729 µM to reach a half-maximal effect (Homo sapiens, MCF7, 48 h) (EC50). The compound further showed an EC90 (Homo sapiens, 48 hours) of 1.77 µM.
On to `N/C(=N\OC(=O)c1ccoc1)c1ccc(Br)cc1` [Cmpd 20], for which a half-maximal effect (Homo sapiens, MCF7, 48 h) (EC50) was put at 50.3 µM. The compound also gave an EC90 (Homo sapiens, 48 hours) of 170 µM.
As for `Cc1ccc(-c2nc3ccc(NCc4cccs4)cc3o2)cc1` [Cmpd 25], under “48 hours”, the EC50 is 8.63 µM. That is a single-digit micromolar value.
On to `O=C(Nc1ccc(Cl)c(Cl)c1)c1ccccc1Br` [Cmpd 9], for which, where the note is “Homo sapiens, MCF7, 48 h”, a half-maximal response (EC50) required 1.3 µM. In addition, the 90% effect level (Homo sapiens, 48 hours) (EC90) was put at 10.1 µM. In addition, the “BRCA1-luciferase activity (in words)” value (48 hours) is “comparatively superior, but similar to Compound 8 and 10”.
For `CC(=O)c1cc(C#N)c(SC/C=C/c2ccccc2)nc1C` [Cmpd 19], the EC50 (Homo sapiens, MCF7, 48 h) amounted to 20.6 µM. This compound returned an EC90 (Homo sapiens, 48 hours) of 79.4 µM.
Turning to `Cc1cccc(/C=N/c2ccc3[nH]c(-c4ccco4)nc3c2)c1` [JN1-72], the EC50 (Homo sapiens, MCF7, 48 h) turned out to be 25.8 µM. Moreover, it took 110 µM to reach the 90% level (Homo sapiens, 48 hours) (EC90).
As to `NNC(=O)c1nc(-c2ccccc2)cc(-c2ccccc2)n1` [Cmpd 27], the EC90 (Homo sapiens, 48 hours) came out at 0.00186 µM.
As to `Cc1ccc(/C(O)=C/C=N/c2cccc(Cl)c2C)cc1` [Cmpd 21], the EC50 (Homo sapiens, MCF7, 48 h) was 11.2 µM. This compound also yielded an EC90 (Homo sapiens, 48 hours) of roughly 9.72 µM.
`O=C(COc1cccc2cccnc12)N1CCc2ccccc21` [Cmpd 16]: the EC90 (Homo sapiens, 48 hours) was roughly 38.8 µM.
The compound `Cc1ccc(-c2nc3ccc(NCc4cccs4)cc3o2)cc1` [Cmpd 26] displayed an EC90 (Homo sapiens, 48 hours) of 366 µM. This compound came in with an EC50 (48 hours) of 28.7 µM.
